According to patent US20240390301A1, “COMBINATIONS OF PERIPHERAL 5-HT2A RECEPTOR ANTAGONISTS AND CENTRAL 5-HT2A RECEPTOR AGONISTS” (priority 2021, published 2024):
Where two headings read alike, the source gives them in different places.

What was measured:
5-HT2C receptor = biological target: T1, 5-HT2C receptor (Homo sapiens, UniProt P28335); experiment: biochemical; assay type: binding; conditions: HEK293 stable cell line, 2 nM [3H]mesulergine, 1 h, 25° C.; for Ki: read-out: 5-HT2C Ki (nM) ([3H]mesulergine)
T1 construct: WuXi AppTec (Hong Kong) Limited (contract laboratory that ran the assay)
T1 sequence (P28335 33-458): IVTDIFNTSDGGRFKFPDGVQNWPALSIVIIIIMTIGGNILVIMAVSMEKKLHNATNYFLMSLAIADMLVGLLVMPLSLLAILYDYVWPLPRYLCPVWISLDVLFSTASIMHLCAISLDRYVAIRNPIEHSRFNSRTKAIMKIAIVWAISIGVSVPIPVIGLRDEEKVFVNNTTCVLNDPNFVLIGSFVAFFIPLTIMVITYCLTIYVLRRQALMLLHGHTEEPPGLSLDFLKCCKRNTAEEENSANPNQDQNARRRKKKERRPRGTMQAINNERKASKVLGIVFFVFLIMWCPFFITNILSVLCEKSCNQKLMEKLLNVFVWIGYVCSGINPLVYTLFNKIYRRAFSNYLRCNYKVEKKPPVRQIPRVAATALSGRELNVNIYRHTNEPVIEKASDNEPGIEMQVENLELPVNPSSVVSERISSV

[1] = tested on: DOPR-induced head twitch response (HTR); experiment: Blockade of DOPR-induced head twitch response (HTR) in rats; assay type: in vivo, Sprague-Dawley rats; conditions: for Attenuation of the HTR to DOPR (significance vs. vehicle): all doses tested, SC, Dunnett's multiple comparison test; for Mean HTR (SEM): 10 min before DOPR 0.32 mg/kg SC, HTRs counted for 20 min
Protocol: FIG. 1 graphically depicts in a bar graph the effect of xylamidine pre-treatment on the HTR induced by DOPR in the rat. The indicated doses of xylamidine or vehicle were administered SC. followed 10 minutes later by DOPR (0.32 mg/kg, SC), and HTRs were counted for 20 minutes immediately after DOPR administration (10-30 min after administration of xylamidine). […] In FIG. 2, the effect of BW501C67 pre-treatment on the HTR induced by DOPR in the rat is depicted graphically in a bar graph. […] FIG. 4 graphically depicts in a bar graph the effect of sarpogrelate pre-treatment on the HTR induced by DOPR in the rat.
Animals. Adult male Sprague-Dawley rats aged 8 weeks (body weight ˜270 g) were used in these experiments. Animals were pair housed under controlled temperatures and 12-hour light/dark cycles (lights on between 07:00-19:00 h), with ad libitum food and water. The protocol was approved by the Eurofins Advinus Institutional Animal Care and Use Committee. This study was carried out in strict accordance with the recommendations in the Guide for the Care and Use of Laboratory Animals of the National Institutes of Health. All efforts were made to minimize suffering.
Drugs and Drug Administration. Test compounds were prepared as described above or commercially obtained. Drugs were dissolved in their respective vehicle solutions (see Table 4) and administered subcutaneously (SC) in a volume of 5 mL/kg (except for the experiment with sarpogrelate, where a volume of […] was used). […] The 5-HT2A receptor agonist DOPR was then administered at 1 dose (0.32 mg/kg, SC, in saline, calculated based on the free base) to all animals 10 min after pretreatment with the test peripheral antagonist or vehicle.
Procedure. Rats were administered one dose (0.01 to 100 mg/kg, SC, as indicated) of a test peripheral antagonist (or vehicle) 10 mins prior to administration of DOPR (0.32 mg/kg, SC). After administration of DOPR, rats were immediately placed into a small open field for behavioral observation.
Statistical analysis. The data points shown in Table 4 are the mean±standard error of the mean (SEM). Statistical comparisons were performed between each peripheral antagonist treatment group and its respective vehicle treatment group using Dunnett's multiple comparison test. Analysis was performed using GraphPad Prism 6.

Rat plasma stability = assay type: in vitro ADME; conditions: 37° C.
Protocol: The results were used to confirm that the plasma protein binding results were not confounded by poor plasma stability.
Method 1. […] Plasma was centrifuged at 4,000 rpm for 5 min and any clots were remove.
Method 2. […]

[2] = 37° C.
Protocol: Method 1. Pooled frozen rat brain homogenate was thawed in a water bath at 37° C. prior to the experiment. Using an Apricot automation workstation, 98 μL/well of blank brain homogenate or 100 mM PBS were added to all 96-well reaction plates (Blank, T0, T10, T30, T60, and T120). […] All reaction plates containing mixtures of compound and brain homogenate were incubated at 37° C. in a water bath for up to 120 minutes. At the end of incubation, 500 uL of stop solution (200 ng/mL tolbutamide and 200 ng/mL labetalol in ACN) was added to precipitate protein and mixed thoroughly for 20 minutes at 4° C. After centrifugation at 4,000 rpm and 4° C. for 20 minutes, an Apricot automation workstation was used to transfer 150 μL of supernatant from each reaction plate to its corresponding bioanaylsis plate, which was shaken for 10 minutes prior to LC-MS/MS analysis.
Method 2. Rat brain tissue homogenate samples were prepared by diluting one volume of whole rat brain tissue with two volumes of dialysis buffer (phosphate buffered saline pH 7.4-0.1 M sodium phosphate and 0.15 M sodium chloride) to yield 3 times diluted homogenate. Test compounds were spiked into 400 μL aliquots (n=3) of rat brain homogenate and the resulting mixtures were incubated at 37° C. […] An aliquot (100 μL) of each sample was transferred to a 96-well deep plate and analyzed by LC-MS/MS.

[3] = Method 2: 3 times diluted homogenate

| Structure (SMILES) | 5-HT2C Ki (nM) ([3H]mesulergine) (5-HT2C receptor) | Ki (5-HT2C receptor) | Attenuation of the HTR to DOPR (significance vs. vehicle) [1] | Mean HTR (SEM) ([1]; antagonist 0.01 mg/kg SC) | Mean HTR (SEM) ([1]; antagonist 0.1 mg/kg SC) | Mean HTR (SEM) ([1]; antagonist 1 mg/kg SC) | Mean HTR (SEM) ([1]; antagonist 10 mg/kg SC) | % Remaining (120 minutes), rat plasma (Rat plasma stability; Method 1: 2 μM) | % Remaining (120 minutes), rat brain homogenate ([2]; Method 1: 1 μM) | % Remaining (120 minutes), rat plasma (Rat plasma stability; Method 2: 5 μM) | Mean HTR (SEM) ([1]; antagonist 3 mg/kg SC) | Mean HTR (SEM) ([1]; antagonist 30 mg/kg SC) | Mean HTR (SEM) ([1]; antagonist 100 mg/kg SC) | % Remaining (120 minutes), rat brain homogenate [2, 3] |
| --- | --- | --- | --- | --- | --- | --- | --- | --- | --- | --- | --- | --- | --- | --- |
| CC(CNC(=N)CNc1ccccc1)Oc1cccc(Cl)c1.O=CO (stereo not shown) [BW501C67, N-(2-(3-chlorophenoxy)propyl)-2-(phenylamino)acetimidamide formate] | high affinity | 1.34 nM | not statistically significant | 5.83 | 2.67 | 5.33 | 4.33 | 100.7% | 110.8% |  |  |  |  |  |
| CC(C)COc1ccc(CNC(=O)N(Cc2ccc(F)cc2)C2CCN(C(=O)CC[C@H](N)C(=O)O)CC2)cc1 [Compound 14a, (S)-2-amino-5-(4-(1-(4-fluorobenzyl)-3-(4-isobutoxybenzyl)ureido)piperidin-1-yl)-5-oxopentanoic acid] |  | 106 nM | statistically significant attenuation of the HTR | 2.50 | 2.00 | 2.17 | 1.83 |  |  | 97% |  |  |  |  |
| COc1cccc(CCc2ccccc2OCC(CN(C)C)OC(=O)CCC(=O)O)c1 (stereo not shown) [sarpogrelate] |  |  | statistically significant attenuation of the HTR |  |  | 2.33 | 1.33 |  |  | 67% | 1.83 | 1.33 | 0.33 |  |
| COc1cccc(C(=O)Nc2ccc(OCCN3CCOCC3)c(-c3ccnn3C)c2)c1 [temanogrel] |  |  |  |  |  |  |  |  |  | 95% |  |  |  | 101% |
| COc1cccc(OC(C)CNC(=N)Cc2cccc(C)c2)c1.O=C(O)C(F)(F)F (stereo not shown) [xylamidine, N-(2-(3-methoxyphenoxy)propyl)-2-(m-tolyl) acetimidamide trifluoroacetate] | high affinity | 1.45 nM | not statistically significant | 7.33 | 5.00 | 3.17 | 2.83 |  |  | 94% |  |  |  | 100% |
